Source: ChEMBL document CHEMBL1135928, “Binding mode analysis of 3-(4-benzoyl-1-methyl-1H-2-pyrrolyl)-N-hydroxy-2-propenamide: a new synthetic histone deacetylase inhibitor inducing histone hyperacetylation, growth inhibition, and terminal cell differentiation” (J Med Chem, 2002)

Legend:
[1] = biological target: T1, Histone deacetylase 1 (Mus musculus, UniProt O09106); test: In vitro for anti-HDAC1 (Histone deacetylase 1) activity in mouse A20 cells; type: cell-based
[2] = biological target: T1, Histone deacetylase 1; test: Binding affinity towards HDAC1 (Histone deacetylase 1) in mouse A20 cells, expressed as binding constant (pKi); type: cell-based

T1 sequence (O09106 whole entry): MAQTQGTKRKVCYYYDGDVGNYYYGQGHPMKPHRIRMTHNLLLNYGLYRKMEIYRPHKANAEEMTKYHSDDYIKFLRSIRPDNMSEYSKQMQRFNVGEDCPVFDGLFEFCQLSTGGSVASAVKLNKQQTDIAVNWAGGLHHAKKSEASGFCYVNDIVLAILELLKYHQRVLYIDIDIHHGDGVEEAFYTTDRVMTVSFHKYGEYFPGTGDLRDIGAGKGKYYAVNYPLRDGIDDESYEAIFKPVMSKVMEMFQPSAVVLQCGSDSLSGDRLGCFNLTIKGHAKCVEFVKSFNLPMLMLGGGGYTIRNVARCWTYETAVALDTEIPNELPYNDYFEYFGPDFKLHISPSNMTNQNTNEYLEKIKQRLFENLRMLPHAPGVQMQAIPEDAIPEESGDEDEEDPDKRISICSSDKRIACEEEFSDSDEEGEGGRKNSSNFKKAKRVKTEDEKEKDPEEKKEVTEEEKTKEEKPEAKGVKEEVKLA

IC50 [1] [µM]	Ki [2] [µM]	Compound
4.9	2.95	Cn1cc(C(=O)c2ccccc2)cc1/C=C/C(=O)NO
4.5	2.69	Cc1ccc(C(=O)c2cc(/C=C/C(=O)NO)n(C)c2)cc1
4.2	2.51	CN(C)c1ccc(C(=O)c2cc(/C=C/C(=O)NO)n(C)c2)cc1
